How the values were obtained:
Type in all cases: physicochemical
[1] = Refractive index and Abbe number (Abbe refractometer, NMP solutions extrapolated to 100% by weight); settings: 20° C.; for Refractive index: 589 nm; for Abbe number: calculated from extrapolated refractive indices at 486, 589, 656 nm
Protocol: [5] Refractive Index and Abbe Number
The refractive index of each of the bisphenol, the polyarylate resin, the (meth)acrylate compound and the epoxy resin is a value determined using the following method and conditions. In addition, the Abbe number of each of the (meth)acrylate compound and the epoxy resin was calculated on the basis of the refractive index measured using the following method and conditions. • Apparatus: Abbe refractometer (“multiwavelength Abbe refractometer DR-2M” manufactured by ATAGO CO., LTD.) • Measurement wavelength: 589 nm (refractive index), 486, 589, 656 nm (Abbe number) • Measurement temperature: 20° C. • Refractive index of bisphenol: The bisphenol was dissolved in N-methyl-2-pyrrolidone (hereinafter, sometimes referred to as NMP) to prepare 5 wt %, 10 wt % and 15 wt % solutions, and the refractive index was measured for each of the solutions using the above-mentioned apparatus and conditions. Next, an approximate curve was derived from the obtained three measured values, and a value obtained by extrapolating the curve at 100% by weight was defined as a refractive index of each bisphenol. • Refractive index of polyarylate resin: A polyarylate resin powder was dissolved in NMP to prepare 1 wt %, 3 wt % and 5 wt % solutions, and the refractive index was measured for each of the solutions using the above-mentioned apparatus and conditions. Next, an approximate curve was derived from the obtained three measured values, and a value obtained by extrapolating the curve at 100% by weight was defined as a refractive index of each polyarylate resin. • Refractive index and Abbe number of (meth)acrylate compound: Each (meth)acrylate compound was dissolved in NMP to prepare a 5 wt %, 10 wt % and 15 wt % solutions (for Comparative Examples 4 and 5, 1 wt %, 3 wt % and 5 wt % solutions were prepared because the (meth)acrylate compound was hardly soluble in an organic solvent), and the refractive index at each wavelength was measured for each of the solutions using the above-mentioned apparatus and conditions. Next, an approximate curve was derived from the obtained three measured values, a value obtained by extrapolating the curve at 100% by weight was defined as a refractive index of each (meth)acrylate compound at each wavelength, and the Abbe number was calculated on the basis of the refractive index at each wavelength, which was determined as described above. • Refractive index and Abbe number of epoxy resin: Each epoxy resin was dissolved in NMP to prepare 5 wt %, 10 wt % and 15 wt % solutions, and the refractive index at each wavelength was measured for each of the solutions using the above-mentioned apparatus and conditions. Next, an approximate curve was derived from the obtained three measured values, a value obtained by extrapolating the curve at 100% by weight was defined as a refractive index of each epoxy resin at each wavelength, and the Abbe number was calculated on the basis of the refractive index at each wavelength, which was determined as described above.

[2] = 5% weight loss temperature (thermogravimetric instrument); settings: bisphenol; 10° C./min from room temperature to 500° C., nitrogen gas stream
Protocol: [6] 5% Weight Loss Temperature
Using a thermogravimetric instrument (TGA-50 from Shimadzu Corporation), measurement was performed with the temperature elevated at a rate of 10° C./min from room temperature to 500° C. under a nitrogen gas stream.

[3] = Solubility test of (meth)acrylate compound; set-up: key: ◯: The sample is dissolved at room temperature.; Δ: The sample is dissolved when heated, and crystals are not precipitated even when the sample is cooled.; x: The sample is dissolved when heated, but crystals are precipitated when the sample is cooled, or the sample is not dissolved even when heated; settings: for Solubility (30 mass % concentration) Monofunctional acrylate OPPEA: 30 parts by weight acrylate + 70 parts 2-phenylphenoxyethyl acrylate; for Solubility (30 mass % concentration) Solvent EA: 30 parts by weight acrylate + 70 parts ethyl acetate; for Solubility (30 mass % concentration) Monofunctional acrylate POB-A: 30 parts by weight acrylate + 70 parts m-phenoxybenzyl acrylate; for Solubility (30 mass % concentration) Solvent MEK: 30 parts by weight acrylate + 70 parts methyl ethyl ketone; for Solubility (30 mass % concentration) Solvent PGME: 30 parts by weight acrylate + 70 parts propylene glycol monomethyl ether; for Solubility (30 mass % concentration) Solvent PGMEA: 30 parts by weight acrylate + 70 parts propylene glycol monomethyl ether acetate
Protocol: (9-2) Solubility Test of (Meth)Acrylate Compound
30 parts by weight of the (meth)acrylate compound and 70 parts by weight of each of the diluents (solvent or monofunctional acrylate) shown in Table 3 were mixed, and solubility was evaluated on the basis of the following evaluation criteria.
◯: The sample is dissolved at room temperature.
Δ: The sample is dissolved when heated, and crystals are not precipitated even when the sample is cooled.
x: The sample is dissolved when heated, but crystals are precipitated when the sample is cooled, or the sample is not dissolved even when heated.

[4] = Glass transition temperature (DSC); settings: (meth)acrylate compound; DSC 10° C./min
Protocol: [4] Melting Point (Melt Endothermic Maximum Temperature in Differential Scanning Calorimetry (DSC)) and Glass Transition Temperature
5 mg of a sample was precisely weighed, and taken in an aluminum pan, measurement was performed under the following operation conditions with aluminum oxide as a control using a differential scanning calorimeter (DSC 7020 manufactured by SII NanoTechnology Inc.), and the detected melt endothermic maximum temperature was defined as a melting point. For a sample (amorphous material, resin or the like) in which a melt endothermic peak was not detected, the intersection of tangent lines at an inflection point was defined as a glass transition temperature (Tg).
• Temperature elevation rate: 10° C./min (for bisphenol and (meth)acrylate compound) and 20° C./min (for polyarylate resin) • Measurement range: 30 to 250° C. (for bisphenol), 150 to 250° C. (for polyarylate resin) and −30 to 350° C. (for (meth)acrylate compound) • atmosphere: Open, nitrogen: 40 ml/min

[5] = bisphenol, 5, 10, 15 wt % NMP solutions extrapolated to 100% by weight
[6] = (meth)acrylate compound, 5, 10, 15 wt % NMP solutions (Comparative Examples 4 and 5: 1, 3, 5 wt %) extrapolated to 100% by weight

SMILES | Refractive index [1, 5] | 5% weight loss temperature [2] | Refractive index [1, 6] | Abbe number ([1]; (meth)acrylate compound) | Solubility (30 mass % concentration) Monofunctional acrylate OPPEA [3] | Solubility (30 mass % concentration) Solvent EA [3] | Solubility (30 mass % concentration) Monofunctional acrylate POB-A [3] | Solubility (30 mass % concentration) Solvent MEK [3] | Solubility (30 mass % concentration) Solvent PGME [3] | Solubility (30 mass % concentration) Solvent PGMEA [3] | Tg [4]
Oc1ccc(C2(c3ccc(O)c(-c4ccccc4)c3)c3ccccc3-c3ccccc32)cc1-c1ccccc1 [Comparative Example 1] | 1.67 | 306 °C | – | – | – | – | – | – | – | – | –
C=CC(=O)Oc1ccc(C2(c3ccc(OC(=O)C=C)c(C)c3)c3ccccc3-c3ccccc32)cc1C [Comparative Example 4] | – | – | 1.606 | 25.5 | x | x | x | x | x | x | –
C=CC(=O)OCCOc1ccc(C2(c3ccc(OCCOC(=O)C=C)c(C)c3)c3ccccc3-c3ccccc32)cc1C [Comparative Example 6] | – | – | 1.591 | 23.1 | ∘ | ∘ | ∘ | ∘ | x | ∘ | 0.0 °C
C=CC(=O)Oc1c(Cc2ccccc2)cc(C2(c3cc(Cc4ccccc4)c(OC(=O)C=C)c(-c4ccccc4)c3)c3ccccc3-c3ccccc32)cc1-c1ccccc1 [Example 5] | – | – | 1.633 | 19.7 | ∘ | ∘ | ∘ | ∘ | ∘ | ∘ | 32.4 °C
OCCOc1ccc(C2(c3ccc(OCCO)c(-c4ccccc4)c3)c3ccccc3-c3ccccc32)cc1-c1ccccc1 [Reference Example 1] | 1.65 | 363 °C | – | – | – | – | – | – | – | – | –

The next lines start with the values.

Refractive index [1, 5] | 5% weight loss temperature [2] | Refractive index [1, 6] | Abbe number ([1]; (meth)acrylate compound) | Solubility (30 mass % concentration) Monofunctional acrylate OPPEA [3] | Solubility (30 mass % concentration) Solvent EA [3] | Solubility (30 mass % concentration) Monofunctional acrylate POB-A [3] | Solubility (30 mass % concentration) Solvent MEK [3] | Solubility (30 mass % concentration) Solvent PGME [3] | Solubility (30 mass % concentration) Solvent PGMEA [3] | Tg [4] | SMILES
– | – | 1.644 | 21.4 | x | x | x | x | x | x | – | C=CC(=O)Oc1ccc(C2(c3ccc(OC(=O)C=C)c(-c4ccccc4)c3)c3ccccc3-c3ccccc32)cc1-c1ccccc1 [Comparative Example 5]
1.67 | 357 °C | – | – | – | – | – | – | – | – | – | Oc1c(Cc2ccccc2)cc(C2(c3cc(Cc4ccccc4)c(O)c(-c4ccccc4)c3)c3ccccc3-c3ccccc32)cc1-c1ccccc1 [Example 1]
– | – | 1.632 | 19.0 | x | ∘ | x | ∘ | x | x | – | C=CC(=O)Oc1ccc2ccccc2c1-c1c(OC(=O)C=C)ccc2ccccc12 [Reference Example 2]
